According to US20100298141A1, “SUBSTITUTED PYRIDINE N-OXIDE HERBICIDES” (E. I. DU PONT DE NEMOURS AND COMPANY, priority 2007, published 2010):

Legend:
goosegrass = experiment: Test F preemergence test; format: in vivo, Eleusine indica; settings: scale 0 to 100
Procedure, shortened: (§1)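 Test chemicals were formulated in a non-phytotoxic solvent mixture with surfactant and applied preemergence to planted seeds or postemergence to sugarcane plants. Plants were kept in a greenhouse for 14 to 21 days, then visually evaluated against controls.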

johnsongrass = experiment: Test F preemergence test; format: in vivo, Sorghum halepense; settings: scale 0 to 100
Procedure, shortened: as §1

itchgrass = experiment: Test F preemergence test; format: in vivo, Rottboellia cochinchinensis; settings: scale 0 to 100
Procedure, shortened: as §1

dallisgrass = experiment: Test F preemergence test; format: in vivo, Paspalum dilatatum; settings: scale 0 to 100
Procedure, shortened: as §1

green foxtail = experiment: Test C pre-/postemergence test; format: in vivo, Setaria viridis
Procedure, shortened: (§2)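 Compounds in a non-phytotoxic solvent with surfactant applied preemergence to seeded pots and, at the same time, postemergence to plants 2–18 cm tall (1- to 4-leaf stage). Paddy tests: pots flooded to 3 cm, compound applied into the water, depth held throughout.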

common groundsel = experiment: Test F preemergence test; format: in vivo, Senecio vulgaris; settings: scale 0 to 100
Procedure, shortened: as §1

Italian ryegrass = experiment: Test C pre-/postemergence test; format: in vivo, Lolium multiflorum
Procedure, shortened: as §2

purple nutsedge = experiment: Test F preemergence test; format: in vivo, Cyperus rotundus; settings: scale 0 to 100
Procedure, shortened: as §1

velvetleaf = experiment: Test A pre-/postemergence greenhouse test; format: in vivo, Abutilon theophrasti; settings: for Plant response rating, Velvetleaf: 0 to 100 scale where 0 is no effect and 100 is complete control; for Velvetleaf plant response rating: 0 to 100 scale
Procedure, shortened: (§3)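 Planting was into mixed loam soil and sand; preemergence treatment followed as a directed soil spray. Concurrently, emerged plants (one- to two-leaf, 2–10 cm) received postemergence applications of identically formulated compound (non-phytotoxic solvent, surfactant). After approximately ten days under greenhouse conditions, injury was judged by eye against untreated plants.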

kochia = experiment: Test F preemergence test; format: in vivo, Kochia scoparia; settings: scale 0 to 100
Procedure, shortened: as §1

barnyardgrass = experiment: Test A pre-/postemergence greenhouse test; format: in vivo, Echinochloa crus-galli; settings: for Plant response rating, Barnyardgrass: 0 to 100 scale where 0 is no effect and 100 is complete control; for Barnyardgrass plant response rating: 0 to 100 scale
Procedure, shortened: as §3

broadleaf signalgrass = experiment: Test F preemergence test; format: in vivo, Brachiaria platyphylla; settings: scale 0 to 100
Procedure, shortened: as §1

Virginia dayflower = experiment: Test F preemergence test; format: in vivo, Commelina virginica; settings: scale 0 to 100
Procedure, shortened: as §1

[1] = 62 g ai/ha, Preemergence, scale 0 to 100
[2] = 125 g ai/ha, preemergence, scale 0 (no effect) to 100 (complete control)
[3] = Preemergence, 31 g ai/ha, scale 0 to 100 (0 no effect, 100 complete control)
[4] = Postemergence, 500 g ai/ha, 0 is no effect, 100 is complete control
[5] = Preemergence, 125 g ai/ha, 0 no effect, 100 complete control

Compound: CCn1nc(C(F)(F)F)c(C[S+]([O-])c2cc(C)cc[n+]2[O-])c1OCC(F)(F)F (racemic) [Compound 66]
- Plant response rating, Goosegrass (goosegrass; 16 g ai/ha, preemergence): 40
- Goosegrass plant response rating (goosegrass; 62 g ai/ha, Preemergence): 75
- Goosegrass plant response rating (goosegrass; 125 g ai/ha, preemergence): 100
- Plant response rating, Goosegrass (goosegrass; Preemergence, 31 g ai/ha): 60
- Plant response rating, Johnsongrass (johnsongrass; 16 g ai/ha, preemergence): 35
- Johnsongrass plant response rating (johnsongrass; 62 g ai/ha, Preemergence): 90
- Johnsongrass plant response rating (johnsongrass; 125 g ai/ha, preemergence): 100
- Plant response rating, Johnsongrass (johnsongrass; Preemergence, 31 g ai/ha): 65
- Plant response rating, Itchgrass (itchgrass; 16 g ai/ha, preemergence): 0
- Itchgrass plant response rating (itchgrass; 62 g ai/ha, Preemergence): 70
- Itchgrass plant response rating (itchgrass; 125 g ai/ha, preemergence): 90
- Plant response rating, Itchgrass (itchgrass; Preemergence, 31 g ai/ha): 50
- Plant response rating, Dallisgrass (dallisgrass; 16 g ai/ha, preemergence): 0
- Dallisgrass plant response rating (dallisgrass; 62 g ai/ha, Preemergence): 95
- Dallisgrass plant response rating (dallisgrass; 125 g ai/ha, preemergence): 100
- Plant response rating, Dallisgrass (dallisgrass; Preemergence, 31 g ai/ha): 65
- Foxtail, Green plant response rating (green foxtail; [1]): 100
- Foxtail, Green plant response rating (green foxtail; [2]): 100
- Plant response rating, Foxtail, Green (green foxtail; [3]): 85
- Foxtail, Green plant response rating (green foxtail; preemergence, 250 g ai/ha, scale 0 (no effect) to 100 (complete control)): 100
- Groundsel plant response rating (common groundsel; 62 g ai/ha, Preemergence): 80
- Groundsel plant response rating (common groundsel; 125 g ai/ha, preemergence): 100
- Plant response rating, Groundsel (common groundsel; Preemergence, 31 g ai/ha): 20
- Ryegrass, Italian plant response rating (Italian ryegrass; [1]): 90
- Ryegrass, Italian plant response rating (Italian ryegrass; [2]): 100
- Plant response rating, Ryegrass, Italian (Italian ryegrass; [3]): 55
- Plant response rating, Purple Nutsedge (purple nutsedge; 16 g ai/ha, preemergence): 25
- Purple Nutsedge plant response rating (purple nutsedge; 62 g ai/ha, Preemergence): 60
- Purple Nutsedge plant response rating (purple nutsedge; 125 g ai/ha, preemergence): 100
- Plant response rating, Purple Nutsedge (purple nutsedge; Preemergence, 31 g ai/ha): 40
- Plant response rating, Velvetleaf (velvetleaf; Postemergence, 125 g ai/ha): 60
- Velvetleaf plant response rating (velvetleaf; [4]): 80
- Velvetleaf plant response rating (velvetleaf; [5]): 60
- Plant response rating, Velvetleaf (velvetleaf; Preemergence, 500 g ai/ha): 100
- Plant response rating, Kochia (kochia; 16 g ai/ha, preemergence): 0
- Kochia plant response rating (kochia; 62 g ai/ha, Preemergence): 15
- Kochia plant response rating (kochia; 125 g ai/ha, preemergence): 90
- Plant response rating, Kochia (kochia; Preemergence, 31 g ai/ha): 0
- Plant response rating, Barnyardgrass (barnyardgrass; Postemergence, 125 g ai/ha): 70
- Barnyardgrass plant response rating (barnyardgrass; [4]): 90
- Barnyardgrass plant response rating (barnyardgrass; [5]): 60
- Plant response rating, Barnyardgrass (barnyardgrass; Preemergence, 500 g ai/ha): 100
- Plant response rating, Signalgrass (broadleaf signalgrass; 16 g ai/ha, preemergence): 30
- Signalgrass plant response rating (broadleaf signalgrass; 125 g ai/ha, preemergence): 95
- Plant response rating, Signalgrass (broadleaf signalgrass; Preemergence, 62 g ai/ha): 65
- Plant response rating, Signalgrass (broadleaf signalgrass; Preemergence, 31 g ai/ha): 30
- Plant response rating, Dayflower (Virginia dayflower; 16 g ai/ha, preemergence): 0
- Plant response rating, Dayflower (Virginia dayflower; Preemergence, 31 g ai/ha): 0
